Laboratory results taken from the NIST ThermoML archive (doi:10.1021/je400659p).

Assays:
[1] = xn = mol fraction of the nth substance listed; settings: 101 kPa, Liquid, Vibrating tube method
[2] = refractive index (Na D-line) (dimensionless); xn = mol fraction of the nth substance listed; settings: 101 kPa, Liquid, Standard Abbe refractometry

CCn1cc[n+](C)c1.F[B-](F)(F)F [1-ethyl-3-methylimidazolium tetrafluoroborate] + OCCO
Settings | mass density, [1] [kg/m3] | refractive index, [2]
293.15 K, x1 = 0.1249 | 1161.63 | –
293.15 K, x1 = 0.2084 | 1184.1 | –
293.15 K, x1 = 0.3046 | 1205.75 | –
293.15 K, x1 = 0.4124 | 1224.93 | –
293.15 K, x1 = 0.4763 | 1234.72 | –
293.15 K, x1 = 0.5565 | 1245.69 | –
293.15 K, x1 = 0.717 | 1264.34 | –
293.15 K, x1 = 0.7826 | 1271.14 | –
293.15 K, x1 = 0.901 | 1282.2 | –
293.15 K, x1 = 1 | 1290.63 | –
298.15 K, x1 = 0.1249 | 1157.85 | 1.4239
298.15 K, x1 = 0.2084 | 1180.23 | 1.4206
298.15 K, x1 = 0.3046 | 1201.79 | 1.4176
298.15 K, x1 = 0.4124 | 1220.94 | 1.4151
298.15 K, x1 = 0.4763 | 1230.74 | 1.414
298.15 K, x1 = 0.5565 | 1241.72 | 1.413
298.15 K, x1 = 0.717 | 1260.43 | 1.412
298.15 K, x1 = 0.7826 | 1267.25 | 1.4118
298.15 K, x1 = 0.901 | 1278.35 | 1.4115
298.15 K, x1 = 1 | 1286.82 | 1.4111
303.15 K, x1 = 0.1249 | 1154.08 | 1.4224
303.15 K, x1 = 0.2084 | 1176.36 | 1.4192
303.15 K, x1 = 0.3046 | 1197.84 | 1.4163
303.15 K, x1 = 0.4124 | 1216.96 | 1.4138
303.15 K, x1 = 0.4763 | 1226.77 | 1.4127
303.15 K, x1 = 0.5565 | 1237.77 | 1.4117
303.15 K, x1 = 0.717 | 1256.53 | 1.4105
303.15 K, x1 = 0.7826 | 1263.37 | 1.4103
303.15 K, x1 = 0.901 | 1274.51 | 1.4101
303.15 K, x1 = 1 | 1283.02 | 1.41
313.15 K, x1 = 0.1249 | 1146.54 | 1.4199
313.15 K, x1 = 0.2084 | 1168.63 | 1.4167
313.15 K, x1 = 0.3046 | 1189.98 | 1.4136
313.15 K, x1 = 0.4124 | 1209.07 | 1.411
313.15 K, x1 = 0.4763 | 1218.9 | 1.4099
313.15 K, x1 = 0.5565 | 1229.92 | 1.4089
313.15 K, x1 = 0.717 | 1248.81 | 1.4079
313.15 K, x1 = 0.7826 | 1255.69 | 1.4077
313.15 K, x1 = 0.901 | 1266.9 | 1.4076
313.15 K, x1 = 1 | 1275.45 | 1.4073
323.15 K, x1 = 0.1249 | 1138.98 | 1.4174
323.15 K, x1 = 0.2084 | 1160.91 | 1.4142
323.15 K, x1 = 0.3046 | 1182.17 | 1.4111
323.15 K, x1 = 0.4124 | 1201.24 | 1.4085
323.15 K, x1 = 0.4763 | 1211.09 | 1.4074
323.15 K, x1 = 0.5565 | 1222.17 | 1.4064
323.15 K, x1 = 0.717 | 1241.18 | 1.4054
323.15 K, x1 = 0.7826 | 1248.09 | 1.4054
323.15 K, x1 = 0.901 | 1259.36 | 1.4053
323.15 K, x1 = 1 | 1267.97 | 1.4051
333.15 K, x1 = 0.1249 | 1131.39 | –
333.15 K, x1 = 0.2084 | 1153.19 | –
333.15 K, x1 = 0.3046 | 1174.39 | –
333.15 K, x1 = 0.4124 | 1193.47 | –
333.15 K, x1 = 0.4763 | 1203.36 | –
333.15 K, x1 = 0.5565 | 1214.49 | –
333.15 K, x1 = 0.717 | 1233.6 | –
333.15 K, x1 = 0.7826 | 1240.56 | –
333.15 K, x1 = 0.901 | 1251.89 | –
333.15 K, x1 = 1 | 1260.55 | –
343.15 K, x1 = 0.1249 | 1123.78 | –
343.15 K, x1 = 0.2084 | 1145.48 | –
343.15 K, x1 = 0.3046 | 1166.65 | –
343.15 K, x1 = 0.4124 | 1185.76 | –
343.15 K, x1 = 0.4763 | 1195.68 | –
343.15 K, x1 = 0.5565 | 1206.88 | –
343.15 K, x1 = 0.717 | 1226.11 | –
343.15 K, x1 = 0.7826 | 1233.11 | –
343.15 K, x1 = 0.901 | 1244.49 | –
343.15 K, x1 = 1 | 1253.18 | –
353.15 K, x1 = 0.1249 | 1116.15 | –
353.15 K, x1 = 0.2084 | 1137.77 | –
353.15 K, x1 = 0.3046 | 1158.94 | –
353.15 K, x1 = 0.4124 | 1178.1 | –
353.15 K, x1 = 0.4763 | 1188.07 | –
353.15 K, x1 = 0.5565 | 1199.33 | –
353.15 K, x1 = 0.717 | 1218.68 | –
353.15 K, x1 = 0.7826 | 1225.73 | –
353.15 K, x1 = 0.901 | 1237.16 | –
353.15 K, x1 = 1 | 1245.87 | –
